Test system: Dkk1-LRP5-TCF-Luciferase
Assay: Functional Dkk1-LRP5-TCF-Luciferase Assay in U2OS Cells
Conditions: for EC50 / fold induction at 2 µM / fold induction at 20 µM: Homo sapiens, U2OS; for fold induction at 2 µM: read-out: B = TCF ACTIVITY/DMSO CONTROL Fold induction @ 2.0 uM, 2.0 uM compound; for fold induction at 20 µM: read-out: C = TCF ACTIVITY/DMSO CONTROL Fold induction @ 20.0 uM, 20.0 uM compound; for A = MAX FOLD Induction/DMSO CONTROL: maximum fold induction over DMSO control

Structure (SMILES) | EC50 | fold induction at 2 µM | fold induction at 20 µM | A = MAX FOLD Induction/DMSO CONTROL
CC(=O)N[C@H]1CC[C@H](Nc2nccc(-c3ccc4ccccc4c3)n2)CC1 [N-(trans-4-{[4-(2-naphthyl)pyrimidin-2-yl]amino}cyclohexyl)acetamide] | 18.9 µM | 1.9 | 3.2 | 3.695 fold
c1ccc2cc(-c3ccnc(N4CC[C@@H](CN5CCCCC5)C4)n3)ccc2c1 [4-(2-naphthyl)-2-[(3S)-3-(piperidin-1-ylmethyl)pyrrolidin-1-yl]pyrimidine] | – | 1.34 | 1.06 | –
c1ccc2cc(-c3ccnc(N4C[C@H]5CNC[C@H]5C4)n3)ccc2c1 [(3aR*,6aS*)-2-[4-(2-naphthyl)pyrimidin-2-yl]octahydropyrrolo[3,4-c]pyrrole] | – | 1.73 | 0.01 | –
O=C1CN([C@H]2CCN(c3nccc(-c4ccc5ccccc5c4)n3)C2)CCN1 [4-{(3S)-1-[4-(2-naphthyl)pyrimidin-2-yl]pyrrolidin-3-yl}piperazin-2-one] | 6.88 µM | 1.28 | 3.16 | 3.585 fold
CS(=O)(=O)N1CCCN(c2nccc(-c3ccc4ccccc4c3)n2)CC1 [1-(methylsulfonyl)-4-[4-(2-naphthyl)pyrimidin-2-yl]-1,4-diazepane] | 5.61 µM | – | 1.59 | 1.510 fold
c1ccc2cc(-c3ccnc(N4CCC(Cn5ccnc5)CC4)n3)ccc2c1 [2-[4-(1H-imidazol-1-ylmethyl)piperidin-1-yl]-4-(2-naphthyl)pyrimidine] | 11.7 µM | 1.13 | 3.34 | 4.630 fold
c1ccc2cc(-c3ccnc(N4CC[C@H](N5CCCCCC5)C4)n3)ccc2c1 [1-{(3S)-1-[4-(2-naphthyl)pyrimidin-2-yl]pyrrolidin-3-yl}azepane] | – | 3.97 | – | 3.220 fold
CCNC(=O)N[C@H]1CC[C@H](Nc2nccc(-c3ccc4ccccc4c3)n2)CC1 [N-ethyl-N′-(trans-4-{[4-(2-naphthyl)pyrimidin-2-yl]amino}cyclohexyl)urea] | – | 2.84 | 2.35 | 2.740 fold
COC(=O)N1CC[C@H](Nc2nccc(-c3ccc4ccccc4c3)n2)C1 [methyl (3S)-3-{[4-(2-naphthyl)pyrimidin-2-yl]amino}pyrrolidine-1-carboxylate] | 2.77 µM | 1.65 | 2.12 | 2.725 fold
COC(=O)NCC1CCN(c2nccc(-c3ccc4ccccc4c3)n2)CC1 [methyl ({1-[4-(2-naphthyl)pyrimidin-2-yl]piperidin-4-yl}methyl)carbamate] | – | 1.21 | 1.59 | –
CC(C)NC(=O)N1CCC(CNc2nccc(-c3ccc4ccccc4c3)n2)CC1 [N-isopropyl-4-({[4-(2-naphthyl)pyrimidin-2-yl]amino}methyl)piperidine-1-carboxamide] | – | 1.31 | 0.54 | –
c1ccc2cc(-c3ccnc(N4CC[C@H](CN5CCCCC5)C4)n3)ccc2c1 [4-(2-naphthyl)-2-[(3R)-3-(piperidin-1-ylmethyl)pyrrolidin-1-yl]pyrimidine] | – | 1.21 | 1.34 | –
OC1CCN(c2nccc(-c3ccc4ccccc4c3)n2)CC1 [1-[4-(2-naphthyl)pyrimidin-2-yl]piperidin-4-ol] | 1.28 µM | 1.35 | 0.28 | 2.224 fold
CC(C)Nc1nccc(-c2ccc3ccccc3c2)n1 [N-isopropyl-4-(2-naphthyl)pyrimidin-2-amine] | – | 1.64 | – | –
CN(CCN(C)S(C)(=O)=O)[C@@H]1CCN(c2nccc(-c3ccc4ccccc4c3)n2)C1 [N-methyl-N-[2-(methyl{(3R)-1-[4-(2-naphthyl)pyrimidin-2-yl]pyrrolidin-3-yl}amino)ethyl]methanesulfonamide] | – | – | 1.9 | –
c1ccc2cc(-c3ccnc(NC4CCCCC4)n3)ccc2c1 [N-cyclohexyl-4-(2-naphthyl)pyrimidin-2-amine] | – | 1.21 | 1.51 | 1.230 fold
N=C(N)N1CCN(c2nccc(-c3ccc4ccccc4c3)n2)CC1 [4-[4-(2-naphthyl)pyrimidin-2-yl]piperazine-1-carboximidamide] | – | 1.1 | 0.05 | –
O=C(N[C@H]1CCN(c2nccc(-c3ccc4ccccc4c3)n2)C1)c1ccc(Cl)cc1 [4-chloro-N-{(3S)-1-[4-(2-naphthyl)pyrimidin-2-yl]pyrrolidin-3-yl}benzamide] | – | 1.78 | – | –
O=C(N1CCOCC1)N1CCC(Nc2nccc(-c3ccc4ccccc4c3)n2)CC1 [N-[1-(morpholin-4-ylcarbonyl)piperidin-4-yl]-4-(2-naphthyl)pyrimidin-2-amine] | – | 1.03 | 1.07 | –
c1ccc2cc(-c3ccnc(N4CC[C@H](Cn5ccnc5)C4)n3)ccc2c1 [2-[(3R)-3-(1H-imidazol-1-ylmethyl)pyrrolidin-1-yl]-4-(2-naphthyl)pyrimidine] | – | 1.95 | 3.04 | 3.290 fold

Structure (SMILES) | EC50 | fold induction at 2 µM | fold induction at 20 µM | A = MAX FOLD Induction/DMSO CONTROL
CCOC(=O)N1CC[C@@H](Nc2nccc(-c3ccc4ccccc4c3)n2)C1 [ethyl (3R)-3-{[4-(2-naphthyl)pyrimidin-2-yl]amino}pyrrolidine-1-carboxylate] | – | – | 1.3 | –
CNCCN(C)[C@@H]1CCN(c2nccc(-c3ccc4ccccc4c3)n2)C1 [N,N′-dimethyl-N-{(3R)-1-[4-(2-naphthyl)pyrimidin-2-yl]pyrrolidin-3-yl}ethane-1,2-diamine] | – | 1.2 | – | –
c1ccc2cc(-c3ccnc(N4CCCC4)n3)ccc2c1 [4-(2-naphthyl)-2-pyrrolidin-1-ylpyrimidine] | – | 1.97 | – | –
c1ccc2cc(-c3ccnc(N4CC[C@@H](N5CCOCC5)C4)n3)ccc2c1 [4-{(3R)-1-[4-(2-naphthyl)pyrimidin-2-yl]pyrrolidin-3-yl}morpholine] | – | 1.2 | 2.45 | 1.290 fold
O=C(c1ccccc1)N1CCCN(c2nccc(-c3ccc4ccccc4c3)n2)CC1 [1-benzoyl-4-[4-(2-naphthyl)pyrimidin-2-yl]-1,4-diazepane] | – | 1.06 | 0.35 | –
c1cnc(N2CCN(c3nccc(-c4ccc5ccccc5c4)n3)CC2)nc1 [4-(2-naphthyl)-2-(4-pyrimidin-2-ylpiperazin-1-yl)pyrimidine] | – | 1.02 | 1.24 | –
NCC[C@H]1CCCN1c1nccc(-c2ccc3ccccc3c2)n1 [2-{(2R)-1-[4-(2-naphthyl)pyrimidin-2-yl]pyrrolidin-2-yl}ethanamine] | – | 2.72 | 0.01 | 2.270 fold
CS(=O)(=O)NCCN1CCN(c2nccc(-c3ccc4ccccc4c3)n2)CC1 [N-(2-{4-[4-(2-naphthyl)pyrimidin-2-yl]piperazin-1-yl}ethyl)methanesulfonamide] | 5.4 µM | 1.31 | 1.93 | 1.700 fold
N[C@@H]1CCN([C@@H]2CCN(c3nccc(-c4ccc5ccccc5c4)n3)C2)C1 [(3R,3′R)-1′-[4-(2-naphthyl)pyrimidin-2-yl]-1,3′-bipyrrolidin-3-amine] | – | 1.39 | – | –
CN(C)[C@@H]1CCN(C(=O)[C@H]2CCCN2c2nccc(-c3ccc4ccccc4c3)n2)C1 [(3R)—N,N-dimethyl-1-{1-[4-(2-naphthyl)pyrimidin-2-yl]-D-prolyl}pyrrolidin-3-amine] | – | 0.93 | 1.85 | 1.630 fold
O=C([C@H]1CCCN1c1nccc(-c2ccc3ccccc3c2)n1)N1CCCCC1 [4-(2-naphthyl)-2-[(2R)-2-(piperidin-1-ylcarbonyl)pyrrolidin-1-yl]pyrimidine] | – | 1.01 | – | –
CC(=O)N(CC(F)(F)F)[C@H]1CCN(c2nccc(-c3ccc4ccccc4c3)n2)C1 [N-{(3S)-1-[4-(2-naphthyl)pyrimidin-2-yl]pyrrolidin-3-yl}-N-(2,2,2-trifluoroethyl)acetamide] | – | 1.23 | – | –
O=C(NCCC1CCN(c2nccc(-c3ccc4ccccc4c3)n2)CC1)OCc1ccccc1 [benzyl (2-{1-[4-(2-naphthyl)pyrimidin-2-yl]piperidin-4-yl}ethyl)carbamate] | – | 0.86 | 1.49 | –
c1ccc2cc(-c3ccnc(N4CCC(CN5CCCCC5)C4)n3)ccc2c1 (stereo not drawn) [4-(2-naphthyl)-2-[3-(piperidin-1-ylmethyl)pyrrolidin-1-yl]pyrimidine] | – | 1.66 | 0.01 | –
CC(C1CCN(c2nccc(-c3ccc4ccccc4c3)n2)CC1)[N+](=O)[O-] (stereo not drawn) [4-(2-naphthyl)-2-[4-(1-nitroethyl)piperidin-1-yl]pyrimidine] | – | – | 1.44 | –
c1ccc(CNc2nccc(-c3ccc4ccccc4c3)n2)cc1 [N-benzyl-4-(2-naphthyl)pyrimidin-2-amine] | – | 1.71 | – | –
NC(=O)NCC1CN(c2nccc(-c3ccc4ccccc4c3)n2)C1 [N-({1-[4-(2-naphthyl)pyrimidin-2-yl]azetidin-3-yl}methyl)urea] | – | 1.46 | 1.64 | –
CN(CCN(C)[C@@H]1CCN(c2nccc(-c3ccc4ccccc4c3)n2)C1)C(=O)c1ccccc1 [N-methyl-N-[2-(methyl{(3R)-1-[4-(2-naphthyl)pyrimidin-2-yl]pyrrolidin-3-yl}amino)ethyl]benzamide] | – | 1.3 | – | –
CN(C)S(=O)(=O)N1CCC(CNc2nccc(-c3ccc4ccccc4c3)n2)CC1 [N,N-dimethyl-4-({[4-(2-naphthyl)pyrimidin-2-yl]amino}methyl)piperidine-1-sulfonamide] | – | – | 1.21 | –
